# Experimental data reported in patent publication US11098055B2, “Ester ACC inhibitors and uses thereof” (Gilead Apollo, LLC, priority 2015, dated 2021).
# Experiments:
# Type in all cases: cell-based
# [1] = test system: Fusarium virguliforme (Fv); test: Growth inhibition assay of fungal pathogens; details: 48 h, Table 4b, read-out: Concentration at 90% Inhibition Fv
# How it was run: (§1)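 Inoculum density for each fungus is set from 48 h growth curves, and spores are suspended in 17% V8 liquid medium. Compounds are added to final 50, 10, 2 ppm or 2, 0.4, 0.08 ppm. Plates are read by OD600 at 24 and 48 h; inhibition is scored at 48 h versus 2% DMSO.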
# Diplodia maydis (Dm) = test: Growth inhibition assay of fungal pathogens; details: Stenocarpella maydis, 48 h, Table 4b, read-out: Concentration at 90% Inhibition Dm
# How it was run: as §1
# [2] = test system: Collectotrichum graminicola (Cg); test: Growth inhibition assay of fungal pathogens; details: 48 h, Table 4b, read-out: Concentration at 90% Inhibition Cg
# How it was run: as §1
# Septoria tritici (St) = test: Growth inhibition assay of fungal pathogens; details: Zymoseptoria tritici, 48 h, Table 4b, read-out: Concentration at 90% Inhibition St
# How it was run: as §1
# Rhizoctonia solani (Rs) = test: Growth inhibition assay of fungal pathogens; details: 48 h, Table 4b, read-out: Concentration at 90% Inhibition Rs
# How it was run: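 Spores, or mycelial plugs for Rhizoctonia, in 17% V8 medium (¼ PDB for plugs) were exposed to compound at final 50, 10 and 2 ppm or 2, 0.4 and 0.08 ppm, with 2% DMSO. Growth was read by OD600 with blank subtraction plus visual rating; percent inhibition at 48 h is relative to 2% DMSO control.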
# Botrtyis cinerea (Bc) = test: Growth inhibition assay of fungal pathogens; details: 48 h, Table 4b, read-out: Concentration at 90% Inhibition Bc
# How it was run: as §1
# [3] = test system: Phytophthora capsici (Pc); test: Growth inhibition assay of fungal pathogens; details: 48 h, Table 4b, read-out: Concentration at 90% Inhibition Pc
# How it was run: as §1
# [4] = test system: Fusarium moniliforme (Fm); test: Growth inhibition assay of fungal pathogens; details: Fusarium verticillioides, 48 h, Table 4b, read-out: Concentration at 90% Inhibition Fm
# How it was run: as §1
# [5] = test system: C. parapsilosis ATCC 22019; test: Anti-Fungal (Candida) Activity Assay, broth microtiter MIC; details: Lodderomyces parapsilosis, ATCC22019, 48 h, Table 3b (additional results); 3 replicates; MIC read at 48 h
# How it was run: (§2)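 Broth microdilution per CLSI M27-A3 in RPMI 1640 + MOPS, at a final inoculum of 2.5×10^3 CFU/mL. Compound DMSO stocks were diluted in water to a 128 μg/mL working solution. MIC was read visually against the growth control at 48 h.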
# C. albicans ATCC 90028 = test: as above; details: ATCC90028, 48 h, Table 3b (additional results), 3 replicates, MIC read at 48 h
# How it was run: as §2
Structure (SMILES),IC90 [1] [µg/mL],IC90 (Diplodia maydis (Dm)) [µg/mL],IC90 [2] [µg/mL],IC90 (Septoria tritici (St)) [µg/mL],IC90 (Rhizoctonia solani (Rs)) [µg/mL],IC90 (Botrtyis cinerea (Bc)) [µg/mL],IC90 [3] [µg/mL],IC90 [4] [µg/mL],MIC [5] [µg/mL],MIC (C. albicans ATCC 90028) [µg/mL]
"CCOC(=O)c1sc2c(c1C)c(=O)n([C@H](C)C(N)=O)c(=O)n2C[C@H](OCCC#N)c1cc(F)ccc1OC [Compound I-26, ethyl 3-((R)-1-amino-1-oxopropan-2-yl)-1-((R)-2-(2-cyanoethoxy)-2-(5-fluoro-2-methoxyphenyl)ethyl)-5-methyl-2,4-dioxo-1,2,3,4-tetrahydrothieno[2,3-d]pyrimidine-6-carboxylate]",≥ 50,≥ 50,≥ 50,≥ 50,2,10,≥ 50,10,> 4.1,2.1 to 4
"CCOC(=O)c1sc2c(c1C)c(=O)n([C@H](C)C(=O)N(C)C(C)C)c(=O)n2C[C@H](OCCC#N)c1cc(F)ccc1OC [Compound I-27, ethyl 1-((R)-2-(2-cyanoethoxy)-2-(5-fluoro-2-methoxy-phenyl)ethyl)-3-((R)-1-(isopropyl(methyl)amino)-1-oxopropan-2-yl)-5-methyl-2,4-dioxo-1,2,3,4-tetrahydrothieno[2,3-d]pyrimidine-6-carboxylate]",0.4,2,2,≥ 50,2,2,≥ 50,0.08,2.1 to 4,2.1 to 4
"CCOC(=O)c1sc2c(c1C)c(=O)n([C@@H](C)C(=O)N(C)C(C)C)c(=O)n2C[C@H](OCCC#N)c1cc(F)ccc1OC [Compound I-28, ethyl 1-((R)-2-(2-cyanoethoxy)-2-(5-fluoro-2-methoxy-phenyl)-ethyl)-3-((S)-1-(isopropyl(methyl)amino)-1-oxopropan-2-yl)-5-methyl-2,4-dioxo-1,2,3,4-tetrahydrothieno[2,3-d]pyrimidine-6-carboxylate]",0.4,10,10,10,0.08,2,≥ 50,0.4,2.1 to 4,2.1 to 4
"CCNC(=O)C(C)(C)n1c(=O)c2c(C)c(C(=O)OCC)sc2n(C[C@H](OCCC#N)c2cc(F)ccc2OC)c1=O [Compound I-29, (R)-ethyl 1-(2-(2-cyanoethoxy)-2-(5-fluoro-2-methoxy-phenyl)ethyl)-3-(1-(ethylamino)-2-methyl-1-oxopropan-2-yl)-5-methyl-2,4-dioxo-1,2,3,4-tetrahydrothieno[2,3-d]pyrimidine-6-carboxylate]",2,0.4,0.4,10,0.08,2,≥ 50,0.08,2.1 to 4,1.1 to 2
"CCOC(=O)c1sc2c(c1C)c(=O)n(C(C)(C)C(=O)NC(C)C)c(=O)n2C[C@H](OCCC#N)c1ccccc1OC [Compound I-31, ethyl (R)-1-(2-(2-cyanoethoxy)-2-(2-methoxyphenyl)ethyl)-3-(1-(isopropylamino)-2-methyl-1-oxopropan-2-yl)-5-methyl-2,4-dioxo-1,2,3,4-tetrahydrothieno[2,3-d]pyrimidine-6-carboxylate]",0.4,0.4,0.4,10,2,0.4,2,0.08,1.1 to 2,0.25 to 1
"CCNC(=O)C(C)(C)n1c(=O)c2c(C)c(C(=O)OCC)sc2n(C[C@H](OCCC#N)c2ccccc2OC)c1=O [Compound I-32, ethyl (R)-1-(2-(2-cyanoethoxy)-2-(2-methoxyphenyl)ethyl)-3-(1-(ethylamino)-2-methyl-1-oxopropan-2-yl)-5-methyl-2,4-dioxo-1,2,3,4-tetrahydrothieno[2,3-d]pyrimidine-6-carboxylate]",2,2,2,10,2,2,≥ 50,0.08,> 4.1,2.1 to 4
"CCOC(=O)c1sc2c(c1C)c(=O)n(C(C)(C)C(=O)NC(C)C)c(=O)n2C[C@H](OCC#N)c1cc(F)ccc1OC [Compound I-33, ethyl (R)-1-(2-(cyanomethoxy)-2-(5-fluoro-2-methoxy-phenyl)ethyl)-3-(1-(isopropylamino)-2-methyl-1-oxopropan-2-yl)-5-methyl-2,4-dioxo-1,2,3,4-tetrahydrothieno[2,3-d]pyrimidine-6-carboxylate]",0.4,2,2,10,0.4,0.4,≥ 50,0.08,2.1 to 4,0.25 to 1
"CCOC(=O)c1sc2c(c1C)c(=O)n(C(C)(C)C(=O)NC(C)C)c(=O)n2C[C@H](OC[C@H](C)C#N)c1cc(F)ccc1OC [Compound I-34, ethyl 1-((R)-2-((R)-2-cyanopropoxy)-2-(5-fluoro-2-methoxyphenyl)ethyl)-3-(1-(isopropylamino)-2-methyl-1-oxopropan-2-yl)-5-methyl-2,4-dioxo-1,2,3,4-tetrahydrothieno[2,3-d]pyrimidine-6-carboxylate]",0.4,0.4,0.08,2,0.08,0.4,10,0.08,2.1 to 4,0.25 to 1
"CCOC(=O)c1sc2c(c1C)c(=O)n(C(C)(C)C(=O)NC(C)C)c(=O)n2C[C@H](OC[C@@H](C)C#N)c1cc(F)ccc1OC [Compound I-35, ethyl 1-((R)-2-((S)-2-cyanopropoxy)-2-(5-fluoro-2-methoxyphenyl)ethyl)-3-(1-(isopropylamino)-2-methyl-1-oxopropan-2-yl)-5-methyl-2,4-dioxo-1,2,3,4-tetrahydrothieno[2,3-d]pyrimidine-6-carboxylate]",0.4,0.4,0.08,10,0.08,0.4,≥ 50,0.08,0.25 to 1,0.25 to 1
"CCOC(=O)c1sc2c(c1C)c(=O)n(C(C)(C)C(=O)NC(C)C)c(=O)n2C[C@H](OCCS(C)(=O)=O)c1cc(F)ccc1OC [Compound I-36, ethyl (R)-1-(2-(5-fluoro-2-methoxyphenyl)-2-(2-(methylsulfonyl)ethoxy)ethyl)-3-(1-(isopropylamino)-2-methyl-1-oxopropan-2-yl)-5-methyl-2,4-dioxo-1,2,3,4-tetrahydrothieno[2,3-d]pyrimidine-6-carboxylate]",2,2,0.4,≥ 50,0.4,2,≥ 50,0.4,2.1 to 4,0.25 to 1
